Key:
[1] = test system: STZ (130 mg/kg) diabetic pigs; assay: Two-week oral metformin treatment of STZ diabetic pigs: postprandial plasma glucose and insulin, body weight, urinary glucose excretion; type: in vivo, pig
Procedure: (§1) Protocol 5: insulin-mediated whole body glucose disposal, after a two-week placebo or metformin (twice 1.5 g per day) oral treatment period under conditions of iso-energetic feeding, was studied with the hyperinsulinemic (2 mU/kg/minute) euglycemic clamp technique in 14 STZ (130 mg/kg) diabetic pigs.
Fasting blood samples were taken before the start of hyperinsulinemic clamp experiments and postprandial blood samples were taken two to three hours after a morning meal in the week following a clamp study.
Plasma insulin concentration was measured using a Delfia assay (test kit No. B080-1101 by Perkin Elmer Life Sciences, trust by Wallac Oy, Turku, Finland). This specific pig insulin assay was validated using pig insulin standards. Plasma and urine glucose concentrations were analyzed enzymically on an autoanalyzer of Radiometer (ABL and AML, Copenhagen, Denmark). Urine was collected in buckets containing 0.5 grams Halamid-d (sodium-p-toluenesulfonchloramide, Akzo Nobel Chemicals, Amersfoort, NL) to prevent microbial breakdown of glucose. Urine volume was registered over a given interval in order to calculate the rate of urinary glucose excretion. Urine samples (0.5 mL) were stored at −20° C. for later glucose analyses. Ketones (acetoacetic acid) were determined in fresh urine by a reagent strip test (Ketostix, Bayer Diagnostics, Mijdrecht, NL).

[2] = test system: STZ (130 mg/kg) diabetic pigs; assay: Hyperinsulinemic euglycemic clamp in STZ diabetic pigs after two-week metformin treatment; type: in vivo, pig
Procedure: as §1
After overnight fasting, at t=0 minute, insulin was administered as a prime—(17 or 34 mU/kg) continuous (1 or 2 mU/kg/minute) infusion for three hours in normal pigs. Simultaneously, a variable infusion of a 33% D-glucose solution was started and adjusted every ten minutes to maintain the plasma glucose concentration at euglycemic levels and a 6,6-^2H-glucose solution was given as a prime—(216 mg) continuous (3.6 mg/minute). Steady-state conditions were achieved within 90 minutes after initiation of the hyperinsulinemic clamp and steady-state calculations were carried out during the last hour of the clamp (t=120, 135, 150, 165 and 180 minutes). In hyperglycemic diabetic pigs, insulin was given as a prime—(34 or 136 mU/kg) continuous (2 or 8 mU/kg/minute) infusion for five hours. After reaching euglycemic levels, a variable infusion of a 33% D-glucose solution was started and adjusted every ten minutes to maintain the plasma glucose concentration at euglycemia. At t=2 hours, 6,6-^2H-glucose was administered as a prime— (216 mg) continuous (3.6 mg/minute) infusion for the last three hours of the clamp in diabetic pigs. Steady-state conditions were achieved during the last hour of the clamp and steady-state calculations were carried out at (t=240, 255, 270, 285 and 300 minutes).

rodent = rodent studies, relatively high doses (100 to 500 mg/kg); cited from earlier work
[3] = metformin twice 1.5 g per day oral, two weeks
[4] = after two weeks metformin, insulin 2 mU/kg/minute

Compound: CN(C)C(=N)N=C(N)N [Metformin, metformin]
- Reduction in postprandial plasma glucose compared to placebo-treated pigs ([1]; after 14 days of metformin): 30%
- Postprandial plasma glucose, before treatment ([1]; metformin group, baseline): 31.0 ± 5.8 mmol/L
- Postprandial plasma insulin, before treatment ([1]; metformin group, baseline): 1 ± 0 mU/L
- Postprandial plasma glucose, at end of treatment [1, 3]: 24.9 ± 2.2 mmol/L
- Postprandial plasma insulin, at end of treatment [1, 3]: 3 ± 1 mU/L
- Fasting plasma glucose ([2]; after two weeks metformin): 14.7 ± 1.5 mmol/L
- Fasting plasma insulin ([2]; after two weeks metformin): 11 ± 6 mU/L
- Fasting plasma insulin, range ([2]; after two weeks metformin): range (3-37) mU/L
- Increase in insulin-stimulated whole body glucose disposal compared to placebo-treated diabetic pigs ([2]; after two weeks metformin): 60%
- Reduction in fasting plasma glucose compared to placebo-treated diabetic pigs ([2]; after two weeks metformin): 24%
- Steady-state clamp glucose infusion rate (whole body glucose disposal) [2, 4]: 9.4 ± 2.2 mg/kg/min
- Steady-state clamp plasma glucose [2, 4]: 5.3 ± 0.3 mmol/L
- Steady-state clamp plasma insulin [2, 4]: 42 ± 7 mU/L
- Time to reach euglycemia in diabetic pigs [2, 4]: 105 ± 28 min
- Steady-state clamp glucose infusion rate (whole body glucose disposal) ([2]; after two weeks metformin, insulin 2 mU/kg/minute, listed as metformin): 9.4 mg/kg/min
- Whole body glucose disposal, metformin group compared to placebo group ([2]; similar insulin stimulation): 1.6 fold
- Effect on glucose homeostasis (rodent): immediate (within days) effect
